From patent US20070065898A1, “Fluorescence polarization assays for binding of caspase inhibitors and probes therefor” (Wyeth, priority 2005, published 2007)

Target: T1, caspase 3 (Homo sapiens, UniProt P42574)
T1 construct: His tag (C); made in house; host or cells: E. coli
T1 sequence (P42574 29-175 limits assumed): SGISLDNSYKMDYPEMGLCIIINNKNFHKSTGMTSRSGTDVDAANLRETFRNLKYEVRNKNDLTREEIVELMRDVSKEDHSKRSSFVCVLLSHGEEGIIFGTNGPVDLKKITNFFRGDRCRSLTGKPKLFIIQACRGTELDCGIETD
T1 sequence (P42574 176-277 limits assumed): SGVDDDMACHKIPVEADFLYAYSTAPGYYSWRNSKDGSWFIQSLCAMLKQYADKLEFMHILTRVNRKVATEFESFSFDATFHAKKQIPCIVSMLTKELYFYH
Experiment: Determination of probe IC50: caspase inhibition assay, cleavage of fluorogenic substrate Ac-DEVD-AFC
Assay type: biochemical
Settings: substrate Ac-DEVD-AFC 25 μM; caspase added last; cleavage monitored 90 minutes, ex 400 nm / em 505 nm
Experimental: This standard pharmacological test procedure to assess the inhibition of recombinant caspase 3 activity of selected compounds was adapted from Thornbery, N., J. Biol. Chem. 1997 272(29) 17907-17911 and Stennicke, H. R. et al., J. Biol. Chem. 1997 272(41) 25719-25723. The procedure used and results obtained are briefly described below.
Caspase 3 was assayed at 23° C. (room temp) in 96-well plates using the internally quenched tetrapeptide substrate N-acetyl-aspartyl-glutamyl-valyl-aspartate-7-amino-4-trifluoromethyl coumarin (Ac-DEVD-AFC purchased from Biomol). The assays are conducted at pH 7.2 in a buffered system containing 20 mM PIPES, 100 mM NaCl, 1 mM EDTA, 0.1% CHAPS, 10% sucrose and 5 mM L-cysteine. The final concentration of the substrate is 25 μM. Enzymic cleavage between the aspartate and the AFC fluorophore liberates 7-amino-4-trifluoromethyl coumarin which is detected using an excitation wavelength of 400 nm and an emission wavelength of 505 nm in a SpectraMax GeminiXS plate reader operated at room temperature. A steady state rate of substrate cleavage is obtained for analysis. […]
The substrate Ac-DEVD-AFC (25 μM) was added to varying inhibitor (probe) concentrations ranging from 20 μM to 2 nM. […] The cleavage of the substrate by the enzyme (caspase) was monitored continuously for 90 minutes by exciting the substrate at 400 nm and monitoring the fluorescence at emission at 505 nm. […]

Compound: CN1C(=O)C(=O)c2cc(S(=O)(=O)N3CCC[C@H]3CNC(=O)CCCCCNC(=O)c3ccc(-c4c5ccc(=O)cc-5oc5cc(O)ccc45)c(C(=O)O)c3)ccc21 [Example 2, 2-(6-Hydroxy-3-oxo-3H-xanthen-9-yl)-5-[({6-[({(2S)-1-[(1-methyl-2,3-dioxo-2,3-dihydro-1H-indol-5-yl)sulfonyl]pyrrolidin-2-yl}methyl)amino]-6-oxohexyl}amino)carbonyl]benzoic acid]
- IC50: 15 nM

Compound: CN1C(=O)C(=O)c2cc(S(=O)(=O)N3CCC[C@H]3CNC(=O)c3ccc(-c4c5ccc(=O)cc-5oc5cc(O)ccc45)c(C(=O)O)c3)ccc21 [Example 1, 2-(6-Hydroxy-3-oxo-3H-xanthen-9-yl)-5-{[({(2S)-1-[(1-methyl-2,3-dioxo-2,3-dihydro-1H-indol-5-yl)sulfonyl]pyrrolidin-2-yl}methyl)amino]carbonyl}benzoic acid]
- IC50: 10 nM
